From the NIST ThermoML archive (doi:10.1007/s10765-012-1352-4)

Assay: xn = mol fraction of the nth substance listed
Settings: Gas, Loschmidt diffusion cell combined with holoholographic interferometry

[Ne] [neon] + [Ar]
binary diffusion coefficient [m2/s]
Settings	100 kPa	200 kPa	500 kPa	1000 kPa
293.15 K, x2 = 0.1	3.14e-10	1.57e-10	6.34e-11	3.1e-11
293.15 K, x2 = 0.12	3.14e-10	1.57e-10	6.32e-11	3.1e-11
293.15 K, x2 = 0.14	3.13e-10	1.57e-10	6.31e-11	3.1e-11
293.15 K, x2 = 0.16	3.13e-10	1.57e-10	6.3e-11	3.09e-11
293.15 K, x2 = 0.18	3.12e-10	1.56e-10	6.29e-11	3.09e-11
293.15 K, x2 = 0.2	3.11e-10	1.56e-10	6.28e-11	3.08e-11
293.15 K, x2 = 0.22	3.11e-10	1.56e-10	6.27e-11	3.08e-11
293.15 K, x2 = 0.24	3.1e-10	1.56e-10	6.27e-11	3.07e-11
293.15 K, x2 = 0.26	3.1e-10	1.56e-10	6.26e-11	3.07e-11
293.15 K, x2 = 0.28	3.1e-10	1.56e-10	6.25e-11	3.06e-11
293.15 K, x2 = 0.3	3.09e-10	1.56e-10	6.24e-11	3.06e-11
293.15 K, x2 = 0.32	3.08e-10	1.55e-10	6.23e-11	3.05e-11
293.15 K, x2 = 0.34	3.08e-10	1.55e-10	6.22e-11	3.04e-11
293.15 K, x2 = 0.36	3.07e-10	1.55e-10	6.21e-11	3.03e-11
293.15 K, x2 = 0.38	3.08e-10	1.54e-10	6.2e-11	3.02e-11
293.15 K, x2 = 0.4	3.07e-10	1.54e-10	6.19e-11	3.01e-11
293.15 K, x2 = 0.6	3.1e-10	1.56e-10	6.31e-11	3.13e-11
293.15 K, x2 = 0.62	3.09e-10	1.56e-10	6.29e-11	3.13e-11
293.15 K, x2 = 0.64	3.09e-10	1.56e-10	6.28e-11	3.13e-11
293.15 K, x2 = 0.66	3.09e-10	1.56e-10	6.28e-11	3.12e-11
293.15 K, x2 = 0.68	3.09e-10	1.56e-10	6.28e-11	3.12e-11
293.15 K, x2 = 0.7	3.09e-10	1.56e-10	6.28e-11	3.12e-11
293.15 K, x2 = 0.72	3.1e-10	1.56e-10	6.28e-11	3.12e-11
293.15 K, x2 = 0.74	3.1e-10	1.56e-10	6.28e-11	3.12e-11
293.15 K, x2 = 0.76	3.1e-10	1.56e-10	6.28e-11	3.13e-11
293.15 K, x2 = 0.78	3.1e-10	1.57e-10	6.28e-11	3.13e-11
293.15 K, x2 = 0.8	3.1e-10	1.57e-10	6.28e-11	3.13e-11
293.15 K, x2 = 0.82	3.1e-10	1.57e-10	6.29e-11	3.13e-11
293.15 K, x2 = 0.84	3.11e-10	1.57e-10	6.29e-11	3.13e-11
293.15 K, x2 = 0.86	3.11e-10	1.57e-10	6.29e-11	3.13e-11
293.15 K, x2 = 0.88	3.11e-10	1.57e-10	6.3e-11	3.14e-11
293.15 K, x2 = 0.9	3.11e-10	1.57e-10	6.3e-11	3.14e-11
313.15 K, x2 = 0.1	3.56e-10	1.78e-10	7.02e-11	3.5e-11
313.15 K, x2 = 0.12	3.54e-10	1.77e-10	7e-11	3.49e-11
313.15 K, x2 = 0.14	3.53e-10	1.77e-10	6.99e-11	3.49e-11
313.15 K, x2 = 0.16	3.52e-10	1.77e-10	6.98e-11	3.48e-11
313.15 K, x2 = 0.18	3.52e-10	1.76e-10	6.97e-11	3.47e-11
313.15 K, x2 = 0.2	3.51e-10	1.76e-10	6.96e-11	3.47e-11
313.15 K, x2 = 0.22	3.51e-10	1.76e-10	6.95e-11	3.46e-11
313.15 K, x2 = 0.24	3.49e-10	1.75e-10	6.94e-11	3.45e-11
313.15 K, x2 = 0.26	3.49e-10	1.75e-10	6.92e-11	3.44e-11
313.15 K, x2 = 0.28	3.48e-10	1.75e-10	6.91e-11	3.44e-11
313.15 K, x2 = 0.3	3.47e-10	1.74e-10	6.89e-11	3.42e-11
313.15 K, x2 = 0.32	3.47e-10	1.74e-10	6.88e-11	3.41e-11
313.15 K, x2 = 0.34	3.46e-10	1.74e-10	6.86e-11	3.4e-11
313.15 K, x2 = 0.36	3.46e-10	1.74e-10	6.84e-11	3.39e-11
313.15 K, x2 = 0.38	3.45e-10	1.73e-10	6.82e-11	3.37e-11
313.15 K, x2 = 0.4	3.44e-10	1.73e-10	6.79e-11	3.35e-11
313.15 K, x2 = 0.6	3.52e-10	1.75e-10	7.09e-11	3.52e-11
313.15 K, x2 = 0.62	3.51e-10	1.75e-10	7.08e-11	3.51e-11
313.15 K, x2 = 0.64	3.51e-10	1.75e-10	7.07e-11	3.5e-11
313.15 K, x2 = 0.66	3.5e-10	1.75e-10	7.06e-11	3.5e-11
313.15 K, x2 = 0.68	3.5e-10	1.75e-10	7.06e-11	3.5e-11
313.15 K, x2 = 0.7	3.5e-10	1.75e-10	7.05e-11	3.5e-11
313.15 K, x2 = 0.72	3.5e-10	1.75e-10	7.05e-11	3.5e-11
313.15 K, x2 = 0.74	3.49e-10	1.75e-10	7.05e-11	3.5e-11
313.15 K, x2 = 0.76	3.49e-10	1.75e-10	7.06e-11	3.5e-11
313.15 K, x2 = 0.78	3.49e-10	1.75e-10	7.06e-11	3.5e-11
313.15 K, x2 = 0.8	3.49e-10	1.75e-10	7.06e-11	3.5e-11
313.15 K, x2 = 0.82	3.49e-10	1.75e-10	7.06e-11	3.5e-11
313.15 K, x2 = 0.84	3.49e-10	1.76e-10	7.07e-11	3.5e-11
313.15 K, x2 = 0.86	3.5e-10	1.76e-10	7.07e-11	3.5e-11
313.15 K, x2 = 0.88	3.51e-10	1.76e-10	7.07e-11	3.51e-11
313.15 K, x2 = 0.9	3.51e-10	1.76e-10	7.08e-11	3.51e-11
333.15 K, x2 = 0.1	3.99e-10	1.97e-10	7.82e-11	3.91e-11
333.15 K, x2 = 0.12	3.97e-10	1.97e-10	7.8e-11	3.9e-11
333.15 K, x2 = 0.14	3.95e-10	1.96e-10	7.79e-11	3.89e-11
333.15 K, x2 = 0.16	3.94e-10	1.96e-10	7.77e-11	3.88e-11
333.15 K, x2 = 0.18	3.93e-10	1.95e-10	7.76e-11	3.87e-11
333.15 K, x2 = 0.2	3.91e-10	1.95e-10	7.74e-11	3.86e-11
333.15 K, x2 = 0.22	3.91e-10	1.95e-10	7.72e-11	3.86e-11
333.15 K, x2 = 0.24	3.89e-10	1.94e-10	7.7e-11	3.85e-11
333.15 K, x2 = 0.26	3.89e-10	1.94e-10	7.69e-11	3.84e-11
333.15 K, x2 = 0.28	3.87e-10	1.93e-10	7.67e-11	3.83e-11
333.15 K, x2 = 0.3	3.86e-10	1.93e-10	7.65e-11	3.82e-11
333.15 K, x2 = 0.32	3.86e-10	1.93e-10	7.63e-11	3.81e-11
333.15 K, x2 = 0.34	3.84e-10	1.92e-10	7.6e-11	3.8e-11
333.15 K, x2 = 0.36	3.83e-10	1.91e-10	7.57e-11	3.79e-11
333.15 K, x2 = 0.38	3.83e-10	1.91e-10	7.53e-11	3.77e-11
333.15 K, x2 = 0.4	3.8e-10	1.9e-10	7.48e-11	3.75e-11
333.15 K, x2 = 0.6	3.87e-10	1.94e-10	7.82e-11	3.91e-11
333.15 K, x2 = 0.62	3.85e-10	1.94e-10	7.81e-11	3.91e-11
333.15 K, x2 = 0.64	3.84e-10	1.94e-10	7.8e-11	3.9e-11
333.15 K, x2 = 0.66	3.85e-10	1.94e-10	7.8e-11	3.9e-11
333.15 K, x2 = 0.68	3.85e-10	1.94e-10	7.79e-11	3.9e-11
333.15 K, x2 = 0.7	3.85e-10	1.94e-10	7.79e-11	3.89e-11
333.15 K, x2 = 0.72	3.86e-10	1.93e-10	7.79e-11	3.89e-11
333.15 K, x2 = 0.74	3.85e-10	1.94e-10	7.8e-11	3.89e-11
333.15 K, x2 = 0.76	3.86e-10	1.94e-10	7.8e-11	3.9e-11
333.15 K, x2 = 0.78	3.86e-10	1.94e-10	7.8e-11	3.9e-11
333.15 K, x2 = 0.8	3.86e-10	1.94e-10	7.8e-11	3.9e-11
333.15 K, x2 = 0.82	3.86e-10	1.94e-10	7.81e-11	3.9e-11
333.15 K, x2 = 0.84	3.86e-10	1.94e-10	7.81e-11	3.9e-11
333.15 K, x2 = 0.86	3.86e-10	1.94e-10	7.82e-11	3.9e-11
333.15 K, x2 = 0.88	3.86e-10	1.94e-10	7.82e-11	3.91e-11
333.15 K, x2 = 0.9	3.86e-10	1.94e-10	7.82e-11	3.91e-11
